Experimental data taken from patent publication US6737383B1, “Herbicidal oxadiazolidines” (priority 1999, dated 2004).

Legend:
pigweed = assay: Test B pre/postemergence pigweed; format: in vivo, Amaranthus retroflexus
Outline: (§1)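 Response is a visual 0-to-10 score relative to untreated plants, where 0 means no effect and 10 means complete control, taken twelve to sixteen days after application. Treatments went onto soil at planting and onto foliage of 1- to 4-leaf plants, using a surfactant-containing non-phytotoxic solvent.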

blackgrass = assay: Test B pre/postemergence blackgrass; format: in vivo, Alopecurus myosuroides
Outline: as §1

bedstraw = assay: Test B pre/postemergence bedstraw; format: in vivo, Galium aparine
Outline: as §1

cocklebur = assay: Test B pre/postemergence cocklebur; format: in vivo, Xanthium strumarium
Outline: as §1

giant foxtail = assay: Test B pre/postemergence giant foxtail; format: in vivo, Setaria faberii
Outline: as §1

velvetleaf = assay: Test B pre/postemergence velvetleaf; format: in vivo, Abutilon theophrasti
Outline: as §1

soybean = assay: Test B pre/postemergence soybean; format: in vivo, Glycine max
Outline: as §1

wild oat = assay: Test B pre/postemergence wild oat; format: in vivo, Avena fatua
Outline: as §1

wheat = assay: Test B pre/postemergence wheat; format: in vivo, Triticum aestivum
Outline: as §1

smallflower flatsedge = assay: Test B flood test smallflower flatsedge; format: in vivo, Cyperus difformis
Outline: (§2)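 Flood test on plants grown to the 2-leaf stage; treated plants kept in greenhouse twelve to sixteen days, then visually rated against controls on a 0 (no effect) to 10 (complete control) scale.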

surinam grass = assay: Test B pre/postemergence surinam grass; format: in vivo, Brachiaria decumbens
Outline: as §1

corn = assay: Test B pre/postemergence corn; format: in vivo, Zea mays
Outline: as §1

sugar beet = assay: Test B pre/postemergence sugar beet; format: in vivo, Beta vulgaris
Outline: as §1

rice = assay: Test B flood test rice; format: in vivo, Oryza sativa
Outline: as §2

rape = assay: Test B pre/postemergence rape; format: in vivo, Brassica napus
Outline: as §1

morningglory = assay: Test B pre/postemergence morningglory; format: in vivo, Ipomoea hederacea
Outline: as §1

[1] = Postemergence, Rate 62 g/ha, scale 0 to 10, 0 is no effect, 10 is complete control
[2] = Postemergence, Rate 250 g/ha, scale 0 to 10, 0 no effect, 10 complete control
[3] = Preemergence, Rate 62 g/ha, scale 0 to 10 (0 no effect, 10 complete control)
[4] = Preemergence, Rate 125 g/ha, scale 0 to 10 (0 no effect, 10 complete control)
[5] = Preemergence, Rate 250 g/ha, scale of 0 to 10 where 0 is no effect and 10 is complete control
[6] = Preemergence, Rate 500 g/ha, scale 0 (no effect) to 10 (complete control)
[7] = Rate 125 g/ha, Postemergence, scale 0 to 10, 0 no effect, 10 complete control
[8] = Rate 500 g/ha, Postemergence, scale 0 to 10, 0 no effect, 10 complete control
[9] = Rate 125 g/ha, Postemergence section (flood test species), scale 0 to 10, 0 no effect, 10 complete control
[10] = Rate 500 g/ha, listed under Postemergence (flood test species), scale 0 to 10, 0 no effect, 10 complete control
[11] = flood test, listed under Postemergence, Rate 250 g/ha, scale 0 to 10, 0 no effect, 10 complete control

## Cc1ccccc1-n1c(=O)on(C(=O)N(c2cc(F)ccc2F)C(C)C)c1=O [Compound 68]
pigweed; [1]
  Redroot pigweed plant response rating: 0
pigweed; [2]
  Redroot pigweed plant response rating: 0
pigweed; [3]
  Redroot pigweed plant response rating: 0
pigweed; [4]
  Plant response rating, Redroot pigweed: 2
pigweed; [5]
  Plant response rating, Redroot pigweed: 7
pigweed; [6]
  Redroot pigweed plant response rating: 10
pigweed; [7]
  Redroot pigweed plant response rating: 0
pigweed; [8]
  Redroot pigweed plant response rating: 0
blackgrass; [1]
  Blackgrass plant response rating: 0
blackgrass; [2]
  Blackgrass plant response rating: 2
blackgrass; [3]
  Blackgrass plant response rating: 0
blackgrass; [4]
  Plant response rating, Blackgrass: 2
blackgrass; [5]
  Plant response rating, Blackgrass: 2
blackgrass; [6]
  Blackgrass plant response rating: 4
blackgrass; [7]
  Blackgrass plant response rating: 0
blackgrass; [8]
  Blackgrass plant response rating: 2
bedstraw; [1]
  Bedstraw plant response rating: 4
bedstraw; [2]
  Bedstraw plant response rating: 7
bedstraw; [3]
  Bedstraw plant response rating: 0
bedstraw; [4]
  Plant response rating, Bedstraw: 0
bedstraw; [5]
  Plant response rating, Bedstraw: 4
bedstraw; [6]
  Bedstraw plant response rating: 4
bedstraw; [7]
  Bedstraw plant response rating: 7
cocklebur; [1]
  Cocklebur plant response rating: 0
cocklebur; [2]
  Cocklebur plant response rating: 2
cocklebur; [3]
  Cocklebur plant response rating: 0
cocklebur; [4]
  Plant response rating, Cocklebur: 0
cocklebur; [5]
  Plant response rating, Cocklebur: 0
cocklebur; [6]
  Cocklebur plant response rating: 0
cocklebur; [7]
  Cocklebur plant response rating: 0
cocklebur; [8]
  Cocklebur plant response rating: 2
Giant foxtail; [1]
  Giant foxtail plant response rating: 0
Giant foxtail; [2]
  Giant foxtail plant response rating: 0
Giant foxtail; [3]
  Giant foxtail plant response rating: 5
Giant foxtail; [4]
  Plant response rating, Giant foxtail: 9
Giant foxtail; [5]
  Plant response rating, Giant foxtail: 10
Giant foxtail; [6]
  Giant foxtail plant response rating: 10
Giant foxtail; [7]
  Giant foxtail plant response rating: 0
Giant foxtail; [8]
  Giant foxtail plant response rating: 0
velvetleaf; [1]
  Velvetleaf plant response rating: 0
velvetleaf; [2]
  Velvetleaf plant response rating: 2
velvetleaf; [3]
  Velvetleaf plant response rating: 0
velvetleaf; [4]
  Plant response rating, Velvetleaf: 0
velvetleaf; [5]
  Plant response rating, Velvetleaf: 0
velvetleaf; [6]
  Velvetleaf plant response rating: 0
velvetleaf; [7]
  Velvetleaf plant response rating: 0
velvetleaf; [8]
  Velvetleaf plant response rating: 3
soybean; [1]
  Soybean plant response rating: 1
soybean; [2]
  Soybean plant response rating: 3
soybean; [3]
  Soybean plant response rating: 0
soybean; [4]
  Plant response rating, Soybean: 0
soybean; [5]
  Plant response rating, Soybean: 0
soybean; [6]
  Soybean plant response rating: 0
soybean; [7]
  Soybean plant response rating: 2
soybean; [8]
  Soybean plant response rating: 3
Wild oat; [1]
  Wild oats plant response rating: 0
Wild oat; [2]
  Wild oats plant response rating: 0
Wild oat; [3]
  Wild oats plant response rating: 0
Wild oat; [4]
  Plant response rating, Wild oats: 0
Wild oat; [5]
  Plant response rating, Wild oats: 2
Wild oat; [6]
  Wild oats plant response rating: 2
Wild oat; [7]
  Wild oats plant response rating: 0
Wild oat; [8]
  Wild oats plant response rating: 0
wheat; [1]
  Wheat plant response rating: 0
wheat; [2]
  Wheat plant response rating: 0
wheat; [3]
  Wheat plant response rating: 0
wheat; [4]
  Plant response rating, Wheat: 0
wheat; [5]
  Plant response rating, Wheat: 0
wheat; [6]
  Wheat plant response rating: 0
wheat; [7]
  Wheat plant response rating: 0
wheat; [8]
  Wheat plant response rating: 0
Smallflower flatsedge; [1]
  S. Flatsedge plant response rating: 0
Smallflower flatsedge; [9]
  S. Flatsedge plant response rating: 0
Smallflower flatsedge; [10]
  S. Flatsedge plant response rating: 0
Smallflower flatsedge; [11]
  S. Flatsedge plant response rating: 0
Surinam grass; [1]
  B. signalgrass plant response rating: 0
Surinam grass; [2]
  B. signalgrass plant response rating: 0
Surinam grass; [3]
  B. signalgrass plant response rating: 0
Surinam grass; [4]
  Plant response rating, B. signalgrass: 3
Surinam grass; [5]
  Plant response rating, B. signalgrass: 4
Surinam grass; [6]
  B. signalgrass plant response rating: 8
Surinam grass; [7]
  B. signalgrass plant response rating: 0
Surinam grass; Rate 500 g/ha, Postemergence, scale of 0 to 10 where 0 is no effect and 10 is complete control
  B. signalgrass plant response rating: 0
corn; [1]
  Corn plant response rating: 0
corn; [2]
  Corn plant response rating: 0
corn; [3]
  Corn plant response rating: 0
corn; [4]
  Plant response rating, Corn: 0
corn; [5]
  Plant response rating, Corn: 0
corn; [6]
  Corn plant response rating: 0
corn; [7]
  Corn plant response rating: 0
corn; [8]
  Corn plant response rating: 0
Sugar beet; [1]
  Sugarbeets plant response rating: 0
Sugar beet; [2]
  Sugarbeets plant response rating: 0
Sugar beet; [3]
  Sugarbeets plant response rating: 0
Sugar beet; [4]
  Plant response rating, Sugarbeets: 0
Sugar beet; [5]
  Plant response rating, Sugarbeets: 0
Sugar beet; [6]
  Sugarbeets plant response rating: 0
Sugar beet; [7]
  Sugarbeets plant response rating: 0
Sugar beet; [8]
  Sugarbeets plant response rating: 3
rice; [1]
  Rice plant response rating: 0
rice; [9]
  Rice plant response rating: 0
rice; [10]
  Rice plant response rating: 0
rice; [11]
  Rice plant response rating: 0
rape; [1]
  Rape plant response rating: 0
rape; [2]
  Rape plant response rating: 0
rape; [3]
  Rape plant response rating: 0
rape; [4]
  Plant response rating, Rape: 0
rape; [5]
  Plant response rating, Rape: 2
rape; [6]
  Rape plant response rating: 6
rape; [7]
  Rape plant response rating: 0
rape; [8]
  Rape plant response rating: 0
morningglory; [1]
  Morningglory plant response rating: 2
morningglory; [2]
  Morningglory plant response rating: 2
morningglory; [3]
  Morningglory plant response rating: 0
morningglory; [4]
  Plant response rating, Morningglory: 0
morningglory; [5]
  Plant response rating, Morningglory: 0
morningglory; [6]
  Morningglory plant response rating: 0
morningglory; [7]
  Morningglory plant response rating: 2
morningglory; [8]
  Morningglory plant response rating: 3
